Measurements published in patent US20130295179A1, “NOVEL OMEGA-3 AND OMEGA-6 FATTY ACID COMPOSITIONS AND USES THEREOF” (priority 2010, published 2013).
“And” between values parts separate entries of the source, which are not always exact repeats. Equal entries are not always repeated.

Key:
Format in all cases: in vivo, human
[1] = system: children between 6 and 12 years of age with a newly diagnosed ADHD; assay: Continuity in the study, withdrawals and MTP dose needed, randomized pilot trial (Example 7); conditions: 12 months, n = 30 per group
Procedure: The trial was performed at the Neurology Department of the Hospital Infantil de México Federico Gomez (Health National Institute for children's in Mexico) as a randomized pilot trial. Three treatment groups were compared: group A: MTP; group B: Omega 3/6; group C: MTP+Omega 3/6. Subjects were randomized to one of these groups after screening. After inclusion to the trial, the subjects underwent three different trial periods: the 4 weeks titration period (only for the group A and group C in relation to the MTP), the 12 months evaluation period and the 6 months follow up period (FIG. 1) […]
The stimulant used in this trial was short or long acting methylphenidate (hereafter termed MTP). The daily dose was calculated to start at a concentration of 0.5 mg/kg/day to reach a maximum of 1 mg/kg/day depending on the response and the tolerance. […]
For clinically meaningful response, definition of clinical trials with ADHD medications was used, that is: a reduction of at least 25% of the symptoms scores on the ADHD-RS scale. […] The overall clinical impression of symptom severity and functional impairment was measured with the CGI severity scale, which is a clinician rating of the patient's symptom severity related to the clinician's total experience with ADHD patients. […]

[2] = system: Newly diagnosed ADHD children; assay: RCT of omega-3/6 alone or in combination with methylphenidate, one year follow-up (Example 6); conditions: evaluated by the parents
Procedure: Newly diagnosed ADHD children of both genders, 6 to 12 years old, were included in a RCT with one year follow-up in a 3-arm design (A: Omega-3/6; B: Omega 3/6+MTP; and C: MTP). The omega-3/6 fatty acid dosage used was EPA/DHA/GLA (9:3:1) in a total of 792 mg/day (Equazen™). MTP was prescribed in a dosage of 1 mg/kg/day (titration).
The ADHD diagnosis and follow up were made using the Diagnostic and Statistical Manual of Mental Disorders fourth edition (DSM-IV) scale, the ADHD Rating Scale Spanish version (ADHD-RS-VE), and the CEAL (Latin-American scale for ADHD) and overall clinical impression (CGI). For clinically meaningful response, a reduction of at least 25% of the symptoms was used. The adverse events (AE) were evaluated by the parents based on the impact on the patients.

[3] = system: children between 6 and 12 years of age with a newly diagnosed ADHD; assay: ADHD Rating Scale Spanish version (parent ADHD-RS-SV), randomized pilot trial (Example 7)
Procedure: (§1) The trial was performed at the Neurology Department of the Hospital Infantil de México Federico Gomez (Health National Institute for children's in Mexico) as a randomized pilot trial. Three treatment groups were compared: group A: MTP; group B: Omega 3/6; group C: MTP+Omega 3/6. Subjects were randomized to one of these groups after screening. After inclusion to the trial, the subjects underwent three different trial periods: the 4 weeks titration period (only for the group A and group C in relation to the MTP), the 12 months evaluation period and the 6 months follow up period (FIG. 1)
(§2) A total of 107 children between 6 and 12 years of age with a newly diagnosed ADHD entered the screening phase of the trial. The presence of any previous ADHD treatment was an exclusion criterion. 17 children were screening failures and could not be included to the trial. After written informed consent by the parents or tutors of the children, a total of 90 patients were distributed to the three groups following a randomization to the three groups against a set of arbitrary numbers.
Inclusion criteria: Patients from 6 to 12 years old, diagnosed as having attention-deficit hyperactivity disorder by the DSM-IV, agreement to take part in the survey (letter of informed consent signed by the parent or tutor and letter of acknowledgement). Exclusion criteria: any Axis I psychiatric diagnosis other than ADHD except oppositional defiant behaviour disorder, neurological deficit, seizures or tics; previous treatment of suitable doses of methylphenidate; patients with known hypersensitivity to omega-3.
(§3) The omega-3/omega6 fatty acid supplement was used. The daily dosage of this omega 3/6 was of three capsules twice daily, corresponding to a daily dose of 558 mg EPA, 174 mg DHA and 60 mg gamma-linolenic. This specific product was chosen because it was the product and the daily dosage used in three previous clinical studies showing significant positive improvements on ADHD related symptoms without showing significant adverse events.
(§4) The stimulant used in this trial was short or long acting methylphenidate (hereafter termed MTP). The daily dose was calculated to start at a concentration of 0.5 mg/kg/day to reach a maximum of 1 mg/kg/day depending on the response and the tolerance. The doses were adjusted weekly.
(§5) Clinical assessments were made at four time points: at baseline, after 3 months, after 6 months and after 12 months. The study consisted in six stages with a total of 12 visits including the screening visit (screening visit 0) and the period of selection and titration of the medication in the case of the group A & C (first 4 weeks). At baseline all the included patients were newly diagnosed with ADHD being drug-naïve (no previous treatment with omega 3/6, MTP or atomoxetine was permitted). ADHD diagnosis was made for patients who met DMS-IV criteria of any subtype and by using the ADHD-RS-VE (Spanish version) and the CEAL (Latin American scale for ADHD). The presence of any associated condition (comorbidity) was assessed by clinical interview according to DSM-IV criteria. The investigator made a medical evaluation, including weight, height, cephalic perimeter, neurological evaluation, sleep patrons and other comorbidities. A questionnaire for the symptoms of fatty acids deficiency was applied, where 0 means without symptoms and 3 with a high degree of symptoms. We analyzed blood samples for biometry hematic and hepatic function.
(§6) For clinically meaningful response, definition of clinical trials with ADHD medications was used, that is: a reduction of at least 25% of the symptoms scores on the ADHD-RS scale. The other important variable was the permanence time in the study measuring efficacy and tolerability. The overall clinical impression of symptom severity and functional impairment was measured with the CGI severity scale, which is a clinician rating of the patient's symptom severity related to the clinician's total experience with ADHD patients. […]

[4] = system: children between 6 and 12 years of age with a newly diagnosed ADHD; assay: Clinical Global Impression (CGI) severity, randomized pilot trial (Example 7)
Procedure: as §1, §2, §3, §4, §5, §6

[5] = system: children between 6 and 12 years of age with a newly diagnosed ADHD; assay: Side effects / adverse events, randomized pilot trial (Example 7)
Procedure: as §1, §2, §3, §4
The patients was evaluated at baseline including a physical examination, including height and weight, pulse and blood pressure, a neuromotor examination and assessment of the general level of functioning with CGI. We evaluated each week for the first four weeks and each month for a year. The adverse events (AE) were evaluated at any clinic event appointed by the parents and with an impact over the patients, independently if it was associated or not with the medication. This includes exacerbation of the preexistence symptoms. It was important to note the moment of these AE.

[6] = in % of the subjects, n = 30 per group

In the case of `COC(=O)C(c1ccccc1)C1CCCCN1` (stereo not drawn) [MTP, methylphenidate], the “patients who left the study because of side effects” value [1] is reported as 6 patients, the “patients who withdrew for lack of efficacy” value [1] is reported as 2 patients and the “most frequent AE” value [2] is reported as “weight reduction, hyporexia, and anxiety”. The “ADHD RS total score after one month” value ([3]; after one month treatment) was 27.6±4.97, the “response of the hyperactivity symptom” value ([3]; comparison of the three treatments) was “greater impact” and the “ADHD RS, total score, After 3 months” value ([3]; mean, after 3 months) was 25.29 ± 4.18. The “Hyperactive/impulsive subscale, After 3 months” value ([3]; mean, after 3 months) was 13.25±3.05, the “Inattentive subscale, After 3 months” value ([3]; mean, after 3 months) was 12.04±1.78 and the “ADHD RS, total score, After 12 months” value ([3]; mean, after 12 months) was 23.55 ± 1.72. For the same compound, the “Hyperactive/impulsive subscale, After 12 months” value ([3]; mean, after 12 months) was 12.1±1.29, the “Inattentive subscale, After 12 months” value ([3]; mean, after 12 months) was 11.45±1.32 and the “ADHD RS, total score, Baseline” value ([3]; mean, baseline) was 41.43±4.32 and 41.43 ± 4.39. For the same compound, the “Hyperactive/impulsive subscale, Baseline” value ([3]; mean, baseline) was 19.93±5.11, the “Inattentive subscale, Baseline” value ([3]; mean, baseline) was 21.47±3.20 and the “CGI severity category reached after treatment” value ([4]; from marked/severe before the treatment) was “mild/moderate”. For the same compound, the “investigator rated CGI, baseline” value ([4]; scale 1 (normal) to 7, baseline mean) was 6.30±0.65, the “investigator rated CGI, first treatment month” value ([4]; scale 1 to 7, 1 month) was 3.67±1.21 and the “investigator rated CGI severity at 3 months” value ([4]; scale 1 to 7, 3 months) was 4.42±1.02. The “investigator rated CGI severity at 6 months” value ([4]; scale 1 to 7, 6 months) was 3.75±0.44 and 3.90±0.45, the Headache [5, 6] was 23.3% and the Hiporexia [5, 6] was 53.3%. It also gave an Irritability [5, 6] of 16.7%, a Pallor [5, 6] of 16.7% and a Palpitation [5, 6] of 13.3%. It also gave a Seasickness [5, 6] of 1.0%, a Sleeplessness [5, 6] of 6.7% and a Tension [5, 6] of 16.7%. For the same compound, the Tics [5, 6] was 6.7%, the Tremor [5, 6] was 1.0% and the “hyporexia, number of patients” value ([5]; of 30 per group) was 16 patients.
